Measured values as given in patent US20220143006A1, “METHODS OF TREATING CANCER WITH FARNESYLTRANSFERASE INHIBITORS” (Kura Oncology, Inc., priority 2019, published 2022).
“Also recorded” adds a separate entry of the source.

Tests used:
[1] = system: Ras-dependent and -independent malignant tumors; conditions: cited from earlier work
tumors in nude mice = conditions: cited from earlier work
[2] = system: relapsed or refractory Peripheral T-Cell Lymphoma (PTCL); experiment: Phase 2 clinical study of tipifarnib in PTCL (NCT02464228): objective response by KIR mutation status, PTCL-NOS and AITL patients together; format: in vivo, human
Description: (§1) This example describes an ongoing Phase 2 clinical study of tipifarnib with the primary objective being to assess the antitumor activity in terms of Overall Response Rate (ORR) of tipifarnib in approximately 18-30 eligible subjects eligible subjects with Peripheral T-Cell Lymphoma (PTCL) (ClinicalTRials.gov identifier: NCT02464228).
(§2) Subjects receive tipifarnib administered at a starting dose of 300 mg, orally with food, twice a day (bid) on Days 1-21 in 28 day cycles (i.e. 3 weeks on/1 week off). Stepwise 100 mg dose reductions to control treatment-related, treatment-emergent toxicities were also allowed. Subjects who received tipifarnib bid on days 1-7 and days 15-21 in 28 day cycles during the conduct of earlier versions of this protocol were permitted to remain on that dose regimen at the discretion of the investigator. Alternatively, the subject was permitted to transition to receive a dose of 300 mg, orally with food, bid on days 1-21 of 28 day treatment cycles beginning on Day 1 of their next cycle. In the absence of unmanageable toxicities, subjects may continue to receive tipifarnib treatment for up to 12 months in the absence of disease progression and unmanageable toxicity. Treatment was permitted to continue beyond 12 months upon agreement of the Investigator and Sponsor.
(§3) Tumor assessments are performed at screening, at the Day 22 visit (±5 days) performed during Cycles 2, 4, 6 and once every approximately 12 weeks (cycles 9, 12, 15, etc.) thereafter, until disease progression.
(§4) Determination of objective tumor response is performed based on the Lugano Classification (Cheson 2014, Appendix II: The Lugano Classification) and/or measurable cutaneous disease according to the modified Severity Weighted Assessment Tool (mSWAT, Olsen 2011, Appendix III: Modified Severity Weighted Assessment Tool).
(§5) Primary outcome measures: objective response rate (ORR) following treatment with tipfarnib. [Time Frame: 2 years]. Response assessments according to IWC and/or mSWAT.
(§6) This Phase II study investigates the antitumor activity in terms of ORR of tipifarnib in approximately 18-30 eligible subjects with relapsed or refractory PTCL. The first 18 subjects were permitted to have the following PTCL sub-types: PTCL, not otherwise specified (PTCL-NOS), angioimmunoblastic T-cell lymphoma (AITL), ALK-positive and -negative anaplastic large cell lymphoma (ALCL), hepatosplenic T-cell lymphoma, enteropathy-associate T-cell lymphoma (EATL), extranodal natural killer (NK) T-cell lymphoma, nasal type and subcutaneous panniculitis-like T-cell lymphoma. The AITL expansion cohort (N=12) enrolls only subjects with AITL. Only consented subjects who meet all eligibility criteria were enrolled in the study. Eligible subjects received tipifarnib administered at a starting dose of 300 mg, orally with food, twice a day (bid) on Days 1-21 in 28 day cycles (i.e. 3 weeks on/1 week off). Stepwise 100 mg dose reductions to control treatment-related, treatment-emergent toxicities were also allowed. Subjects who received tipifarnib bid on days 1-7 and days 15-21 in 28 day cycles during the conduct of earlier versions of this protocol were permitted to remain on that dose regimen at the discretion of the investigator. Alternatively, the subject was permitted to transition to receive a dose of 300 mg, orally with food, bid on days 1-21 of 28 day treatment cycles beginning on Day 1 of their next cycle. In the absence of unmanageable toxicities, subjects may continue to receive tipifarnib treatment for up to 12 months in the absence of disease progression and unmanageable toxicity. Treatment was permitted to continue beyond 12 months upon agreement of the Investigator and Sponsor.
(§7) A two-stage study design was used for the first 18 subjects in order to minimize the number of study subjects treated if tipifarnib were considered not sufficiently efficacious to grant further development in this subject population. […]

[3] = system: angioimmunoblastic T-cell lymphoma (AITL); experiment: Phase 2 clinical study of tipifarnib in PTCL: objective response by KIR mutation status, AITL patients; format: in vivo, human
Description: as §1, §2, §3, §4, §5, §6, §7

[4] = system: PTCL, not otherwise specified (PTCL-NOS); experiment: Phase 2 clinical study of tipifarnib in PTCL: objective response by KIR mutation status, PTCL-NOS patients; format: in vivo, human; conditions: FIG. 6, PTCL-NOS patients (N=9) with Q386E mutant of KIR3DL2
Description: as §1, §2, §3, §4
Primary outcome measures: objective response rate (ORR) following treatment with tipfarnib. [Time Frame: 2 years]. Response assessments according to IWC and/or mSWAT. […]

[5] = system: unselected tumor populations (AML, MDS/CMML, urothelial cancer, breast cancer, PTCL/CTCL); conditions: single agent therapy, in man; cited from earlier work
[6] = FIG. 6, 14 patients with Q386E mutant of KIR3DL2 (PTCL-NOS N=9, AITL N=5)
[7] = FIG. 6, patients (N=13) with wild type (wt) KIR3DL2 at position 386
[8] = AITL, KIR3DL2 C336R/Q386E mutant, N=8
[9] = FIG. 1, 9 AITL patients, carriers of D184N mutant of KIR2DL1
[10] = FIG. 2, 9 AITL patients, carriers of E295D mutant of KIR2DL3
[11] = FIG. 2, 9 AITL patients, carriers of R162T mutant of KIR2DL3
[12] = FIG. 3, 9 AITL patients, carriers of Q149K, Q149R, and I154M mutants of KIR2DL4
[13] = FIG. 5, 9 AITL patients, carriers of C336R and Q386E mutants of KIR3DL2
[14] = FIG. 6, AITL patients (N=5) with Q386E mutant of KIR3DL2
[15] = FIG. 7, subset of 10 AITL patients, carriers of C336R and Q386E mutants of KIR3DL2

Q: With `NC(=O)N1CCC(CC(=O)N2CCC([C@H]3c4ncc(Br)cc4CCc4cc(Cl)cc(Br)c43)CC2)CC1` [lonafarnib, (+)-(R)-4-[2-[4-(3,10-dibromo-8-chloro-5,6-dihydro-11H-benzo[5,6]cyclohepta[1,2-b]pyridin-11-yl)piperidin-1-yl]-2-oxoethyl]piperidine-1-carboxamide] as the compound, how does the “activity in malignant tumors” value [1] read?
A: active

Q: What does the source list for `CC[C@H](C)[C@@H](CO[C@@H](Cc1ccccc1)C(=O)N[C@@H](CCS(C)(=O)=O)C(=O)O)NC[C@@H](N)CS` [L-739749, 2(S)-[2(S)-[2(R)-amino-3-mercapto]propylamino-3(S)-methyl]-pentyloxy-3-phenylpropionyl-methionine sulfone]?
A: system toxicity (tumors in nude mice; mouse, in vivo): without system toxicity; antitumor activity (tumors in nude mice; nude mice): potent antitumor activity

Q: Which ORR [2, 6] does the source give for `Cn1cncc1[C@@](N)(c1ccc(Cl)cc1)c1ccc2c(c1)c(-c1cccc(Cl)c1)cc(=O)n2C` [tipifarnib, (B)-6-[amino(4-chlorophenyl)(1-methyl-1H-imidazol-5-yl)methyl]-4-(3-chlorophenyl)-1-methyl-2(1H)-quinolinone] here?
A: 36%

Q: What about the “objective responses: number of CRs” value [2, 6] of the same compound?
A: 3

Q: What about the “objective responses: number of PDs” value [2, 6] of the same compound?
A: 8

Q: And the “objective responses: number of PRs” value [2, 6]?
A: 2

Q: And the “objective responses: number of SD” value [2, 6]?
A: 1

Q: What about the ORR [2, 7] of the same compound?
A: 8%

Q: And the “objective responses: number of PD” value [2, 7]?
A: 9

Q: And the “objective responses: number of PR” value [2, 7]?
A: 1

Q: And the “objective responses: number of SD” value [2, 7]?
A: 3

Q: What about the “Clinical Benefit Rate (CR + PR + SD), patients/N” value ([3]; AITL, KIR3DL2 C336R/Q386E mutant) of the same compound?
A: 8/8

Q: What about the “Clinical Benefit Rate (CR + PR + SD)” value [3, 8] of the same compound?
A: 100%

Q: And the “Overall Best Response: Complete Response (CR), number of patients” value [3, 8]?
A: 4

Q: What about the “Overall Best Response: Partial Response (PR), number of patients” value [3, 8] of the same compound?
A: 2

Q: What about the “Overall Best Response: Stable Disease (SD), number of patients” value [3, 8] of the same compound?
A: 2

Q: And the “Overall Response Rate (CR + PR)” value [3, 8]?
A: 75%

Q: What about the “Clinical Benefit Rate (CR + PR + SD), patients/N” value ([3]; AITL, KIR3DL2 wild type) of the same compound?
A: 2/7

Q: What about the “Clinical Benefit Rate (CR + PR + SD)” value ([3]; AITL, KIR3DL2 wild type, N=7) of the same compound?
A: 29%

Q: What about the “Overall Best Response: Partial Response (PR), number of patients” value ([3]; AITL, KIR3DL2 wild type, N=7) of the same compound?
A: 2

Q: What about the “Overall Best Response: Progressive Disease (PD), number of patients” value ([3]; AITL, KIR3DL2 wild type, N=7) of the same compound?
A: 5

Q: What about the “Overall Response Rate (CR + PR)” value ([3]; AITL, KIR3DL2 wild type, N=7) of the same compound?
A: 29%

Q: And the “objective responses: number of complete responses (CR)” value (“objective responses: number … (CR)” below) [3, 9]?
A: 2

Q: What about the “objective responses: number of partial responses (PR)” value (shortened to “objective responses: number … (PR)”) [3, 9] of the same compound?
A: 1

Q: And the “objective responses: number … (CR)” value ([3]; FIG. 1, 9 AITL patients, carriers of F202L mutant of KIR2DL1)?
A: 2

Q: And the “objective responses: number … (CR)” value ([3]; FIG. 1, 9 AITL patients, carriers of G179R mutant of KIR2DL1)?
A: 1

Q: And the “objective responses: number … (PR)” value ([3]; FIG. 1, 9 AITL patients, carriers of N178D mutant of KIR2DL1)?
A: 1

Q: What about the “objective responses: number … (CR)” value ([3]; FIG. 1, 9 AITL patients, carriers of R197T mutant of KIR2DL1) of the same compound?
A: 2

Q: What about the “objective responses: number … (CR)” value [3, 10] of the same compound?
A: 1

Q: What about the “objective responses: number … (PR)” value [3, 10] of the same compound?
A: 1

Q: What about the “objective responses: number … (CR)” value [3, 11] of the same compound?
A: 2

Q: What about the “objective responses: number … (PR)” value [3, 11] of the same compound?
A: 1

Q: What about the “objective responses: number … (CR)” value [3, 12] of the same compound?
A: 2

Q: What about the “objective responses: number … (PR)” value [3, 12] of the same compound?
A: 2

Q: And the “objective responses: number … (CR)” value [3, 13]?
A: 2

Q: And the “objective responses: number … (PR)” value [3, 13]?
A: 2

Q: And the ORR [3, 14]?
A: 80%

Q: What about the “objective responses: number … (CR)” value [3, 14] of the same compound?
A: 2

Q: And the “objective responses: number … (PR)” value [3, 14]?
A: 2

Q: And the “objective responses: number … (CR)” value [3, 15]?
A: 4

Q: And the “objective responses: number … (PR)” value [3, 15]?
A: 2

Q: What about the ORR [4] of the same compound?
A: 11%

Q: And the “objective responses: number of CR” value [4]?
A: 1

Q: What about the “objective responses: number of progressive disease (PD)” value [4] of the same compound?
A: 8

Q: What about the safety and tolerability [5] of the same compound?
A: manageable safety profile; also recorded: reasonably well tolerated in man
